The supplement of paper PMC10307832

Columns and labels:
Test in all cases: relative viability (nuclei count vs DMSO), 5 days (fraction); higher = more cells survive
XMD13-2 + Crizotinib = compound: C1CC1C(=O)NC2=NNC3=C2C=CC(=C3)C4=CC(=CC=C4)C(=O)NC5CC5 [XMD13-2] + C[C@@H](Oc1cc(-c2cnn(C3CCNCC3)c2)cnc1N)c1c(Cl)ccc(F)c1Cl [Crizotinib] (partner 1 µM)
Outline: (§1)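 Lung cancer cell lines, seeded in 1536-well plates, were treated the following day by pin tool with a single drug or with five library-drug doses (not always all listed) in √10 steps on top of a fixed anchor-drug dose. Cells were fixed and nuclei stained in one step after 5 days, and nuclei were counted. Relative viability is the nuclei count for treated wells divided by that for vehicle wells, reported as medians of duplicate plates.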

ALW-II-49-7 + Foretinib = compound: Cc1ccc(C(=O)Nc2cccc(C(F)(F)F)c2)cc1Nc1cncc(C(N)=O)c1 [ALW-II-49-7] + COc1cc2c(Oc3ccc(NC(=O)C4(C(=O)Nc5ccc(F)cc5)CC4)cc3F)ccnc2cc1OCCCN1CCOCC1 [Foretinib] (partner 0.25 µM)
Outline: as §1

Dasatinib + Alpelisib = compound: Cc1nc(Nc2ncc(C(=O)Nc3c(C)cccc3Cl)s2)cc(N2CCN(CCO)CC2)n1 [Dasatinib] + Cc1nc(NC(=O)N2CCC[C@H]2C(N)=O)sc1-c1ccnc(C(C)(C)C(F)(F)F)c1 [Alpelisib] (partner 2 µM)
Outline: as §1

Dasatinib + Olaparib = compound: Cc1nc(Nc2ncc(C(=O)Nc3c(C)cccc3Cl)s2)cc(N2CCN(CCO)CC2)n1 [Dasatinib] + O=C(c1cc(Cc2n[nH]c(=O)c3ccccc23)ccc1F)N1CCN(C(=O)C2CC2)CC1 [Olaparib] (partner 8 µM)
Outline: as §1

UMC-11
relative viability (XMD13-2 + Crizotinib; first compound 0.05 µM): 0.58 | relative viability (XMD13-2 + Crizotinib; first compound 0.1581 µM): 0.557 | relative viability (XMD13-2 + Crizotinib; first compound 0.5 µM): 0.647 | relative viability (XMD13-2 + Crizotinib; first compound 1.581 µM): 0.467 | relative viability (XMD13-2 + Crizotinib; first compound 5 µM): 0.329 | relative viability (ALW-II-49-7 + Foretinib; first compound 0.08 µM): 1.11 | relative viability (ALW-II-49-7 + Foretinib; first compound 0.253 µM): 1.06 | relative viability (ALW-II-49-7 + Foretinib; first compound 0.8 µM): 0.991 | relative viability (ALW-II-49-7 + Foretinib; first compound 2.53 µM): 1.07 | relative viability (ALW-II-49-7 + Foretinib; first compound 8 µM): 1.03 | relative viability (Dasatinib + Alpelisib; first compound 0.005 µM): 0.988 | relative viability (Dasatinib + Alpelisib; first compound 0.01581 µM): 0.768 | relative viability (Dasatinib + Alpelisib; first compound 0.05 µM): 0.752 | relative viability (Dasatinib + Alpelisib; first compound 0.1581 µM): 0.347 | relative viability (Dasatinib + Alpelisib; first compound 0.5 µM): 0.264 | relative viability (Dasatinib + Olaparib; first compound 0.005 µM): 0.542 | relative viability (Dasatinib + Olaparib; first compound 0.01581 µM): 0.377 | relative viability (Dasatinib + Olaparib; first compound 0.05 µM): 0.427 | relative viability (Dasatinib + Olaparib; first compound 0.1581 µM): 0.272 | relative viability (Dasatinib + Olaparib; first compound 0.5 µM): 0.247
